Laboratory results as given in US5443986A, “Enzymatic analysis using substrates that yield fluorescent precipitates” (Molecular Probes, Inc., priority 1993, dated 1995).

Assays:
alkaline phosphatase = alkaline phosphatase (Bos taurus, UniProt P19111); assay: Detection of enzyme on non-denaturing gels after electrophoresis; type: biochemical
Description: 1 ). Detecting enzymes on native gels using precipitating substrates. Gel electrophoresis is a common method for identifying proteins in fluids and tissue homogenates. In native gel electrophoresis, the proteins retain their activity during the process of separation and thus can hypothetically be identified by activity assays. By incubating the native gel with various precipitating substrates specific for the analyte enzyme, one can identify whether the enzyme is present in the loaded sample. These methods are used for investigating the expression of both endogenous enzymes and enzyme-fusion proteins and for the detection of the enzyme in samples suspected of containing the enzyme. A protocol commonly used in these experiments is as follows:
1. The enzyme-containing sample is mixed with the sample buffer (0.075M TRIS-HCl in 50% glycerol, pH 6.8) to a concentration that is appropriate for loading the enzyme. The sample is loaded onto a 4-20% gradient acrylamide gel. The gel is run at 30 mA for approximately 30 minutes.
2. The gel is incubated in a buffer that is optimal for the enzyme being detected and that contains 1 mM of the substrate. For alkaline phosphatase the buffer used is 100 mM MOPS, 50 mM NaCl, 1 mM MgCl2, 0.1 mM ZnCl2, pH 7.5. The appearance of fluorescent bands is monitored using a hand-held ultraviolet lamp.
2). Comparing the sensitivity of enzyme detection using precipitating substrates versus standard Coomassie Blue detection. Decreasing amounts of alkaline phosphatase are loaded into the lanes of two gels. The amount of alkaline phosphatase loaded into each lane varies from […]. After electrophoresis, one gel is developed for visualization using standard Coomassie Blue-staining procedures; the other by incubation with 1 mM 8e as described above. The minimum detectable quantity of alkaline phosphatase using standard Coomassie Blue-staining methods is 1 μg. After incubation with 8e for 30 minutes, 1 ng of alkaline phosphatase is clearly visible using a handheld UV-lamp. After approximately 20 hours incubation, 0.25 ng of alkaline phosphatase can be visibly detected without any signal enhancement. These experiments indicate that incubation with the precipitating substrate provides a method for enzyme detection that is 4000 times more sensitive than standard Coomassie Blue-staining methods. […] Multiple proteins or extracts can be run in a single lane with only the enzyme specific for the synthetic substrate being detected by the staining.

[1] = Critical concentration (Mc) for precipitation of the enzymatic product; type: physicochemical; conditions: product of hydrolysis by excess alkaline phosphatase, 0.1M TRIS pH 10.3
Description: 2D) Critical concentration: Various concentrations of 2-(4'-methoxy-2'-phosphoryloxyphenyl)quinazolinone (3e) were reacted with 50 μL of excess alkaline phosphatase in 200 μL solution of 0.1M TRIS≥pH 10.3 containing 50 mM NaCl, 10 mM MgCl2 and 0.1 mM ZnCl2. The resulting precipitate and fluorescence were measured in a CytoFluor fluorescence plate reader (Millipore) with excitation at 360 nm, emission at 460 nm using sensitivity setting 3.
3). Determination of the critical concentration and pH dependence for the precipitation. The critical concentration (Mc, in units of mmoles) and the pH dependence (pKa) for precipitation are both important parameters for judging the precipitation properties of the enzymatic products obtained from the subject substrates. Below the critical concentration the product will not be detected as a fluorescent precipitate. Obviously these two parameters contribute to the precipitation in a correlated way. As a simple approach, one may define the critical concentration as the concentration necessary for the precipitation at a high pH where all of the phenol group is ionized. Similarly, acidification by lowering the pH results in precipitation at a concentration below the critical concentration that is obtained at high pH to an extent that is related to the pKa of the phenolic group. It is a characteristic of the preferred substrates that only the product precipitate is fluorescent. In this case the precipitate is quantitated by its fluorescence which results in a correlation of the fluorescence with the degree of precipitation.
To obtain the critical concentration for one product the phosphatase substrate (1e) (200 μL) in a 96-well plate is added to 0.1M TRIS, pH 10.3, containing 50 mM NaCl, 10 mM MgCl2 and 0.1 mM ZnCl2 to yield a final concentration of 0.1 to 10 mM. 50 μL of a 1 mg/mL solution of alkaline phosphatase is then added. The fluorescence development is complete after 5 minutes as measured in using a CytoFluor™ 2300 fluorescence plate reader (Millipore, Bedford, Mass.). A concentration showing appreciable fluorescence is determined as the critical concentration.

alkaline phosphatase, sequence (P19111 20-506 limits assumed): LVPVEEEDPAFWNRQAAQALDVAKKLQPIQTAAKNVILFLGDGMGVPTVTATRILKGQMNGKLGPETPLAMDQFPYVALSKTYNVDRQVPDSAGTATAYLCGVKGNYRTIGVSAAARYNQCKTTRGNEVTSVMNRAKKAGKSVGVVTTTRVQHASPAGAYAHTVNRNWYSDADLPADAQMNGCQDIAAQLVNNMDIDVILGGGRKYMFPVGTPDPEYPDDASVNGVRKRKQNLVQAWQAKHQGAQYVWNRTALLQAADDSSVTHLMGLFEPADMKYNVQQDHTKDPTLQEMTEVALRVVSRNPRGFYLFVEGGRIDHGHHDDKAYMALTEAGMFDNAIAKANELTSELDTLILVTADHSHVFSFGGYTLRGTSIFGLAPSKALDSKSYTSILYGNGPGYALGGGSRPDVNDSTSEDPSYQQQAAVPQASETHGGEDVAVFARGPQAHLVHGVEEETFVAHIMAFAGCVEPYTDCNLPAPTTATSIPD

Q: With `O=c1[nH]c(-c2cc(Cl)ccc2OP(=O)(O)O)nc2ccc(Cl)cc12` [8e, Ammonium 2-(5'-chloro-2'-phosphoryloxyphenyl)-6-chloro-4-(3H)-quinazolinone] as the molecule, how does the “quantity of alkaline phosphatase clearly visible on the gel” value (alkaline phosphatase; 1 mM substrate, 30 minutes incubation, handheld UV-lamp) read?
A: Its value is 1 ng.

Q: What about the “quantity of alkaline phosphatase visibly detected on the gel” value (alkaline phosphatase; 1 mM substrate, approximately 20 hours incubation, no signal enhancement) of the same molecule?
A: Its value is 0.25 ng.

Q: And the “sensitivity relative to standard Coomassie Blue-staining methods” value (alkaline phosphatase; enzyme detection on gel)?
A: Its value is 4000 times.

Q: What about the “staining of negative control lanes” value (alkaline phosphatase; lanes loaded with 2-μg bovine serum albumin or 2-μg β-galactosidase) of the same molecule?
A: The value was “does not stain lanes”.

Q: What about the “Mc (critical concentration for precipitation)” value [1] of the same molecule?
A: Its value is 0.1 mM.
